Measurements reported in publication PMC7503713, “GANT61 Reduces Hedgehog Molecule (GLI1) Expression and Promotes Apoptosis in Metastatic Oral Squamous Cell Carcinoma Cells” (International Journal of Molecular Sciences, 2020).

Tests used:
Assay type in all cases: cell-based, human
HSC3 cells [1] = assay: Trypan blue exclusion cell viability assay
Method: (§1) To study the effects of GANT61 on HSC3 cell viability, cycle, and death patterns, 4 mL of cellular solution (containing 0.7 × 10^5 cells/mL) was placed on 6-well plates and incubated overnight, to allow adhesion. […] For cell cycle analysis, the effects of GANT61 on HSC3 cells were also evaluated after 12 h of treatment. Negative controls were treated with the vehicle (0.2% DMSO) used to dilute the GLI inhibitor, and 5-fluorouracil (5-FU, 17 μM) was used as a positive control. All experiments were carried out in duplicate and repeated no less than three times. Cell viability was determined by the trypan blue exclusion method, in which 90 μL aliquots were collected at several incubation periods, stained with 10 μL trypan blue, and counted in a Neubauer chamber, under optical microscopy, at 20× magnification (Olympus CX41 Olympus, Tokyo, Japan).

Gli1 protein = assay: Western blot of HH pathway proteins in HSC3 cells, Gli1; conditions: 24 h
Method: After culturing, HSC3 cells were washed with PBS and denatured by using cell lysis buffer containing 50 mM Tris-HCl (pH 7.4), 1% Triton X-100, 150 mM NaCl, 0.5 mM EGTA, 0.5 EDTA mM, and an anti-protease cocktail (Complete Pro-inhibitor Cocktail Tablets, Roche, Basel, Switzerland). Protein extracts (50 μg) were separated by SDS-PAGE and transferred to Hybond-C Extra (GE Healthcare, Chicago, IL, USA) nitrocellulose membranes. The following antibodies were used in the Western blot assay: mouse […] against Sonic Hedgehog (1:500, Clone 5 H4, Cat. number NBP2-22126, Novus Biologicals, Centennial, CO, USA), rabbit polyclonal against Gli1 (1:500, Novus Biologicals, Cat. number NB600-600), rabbit polyclonal against Patched 1 (1:500, Novus Biologicals, Cat.number NB200-118), and rabbit polyclonal against Smoothened (1:1000, Cat. number AB72130, Abcam, Cambridge, MA, USA). The secondary antibodies were anti-mouse IgG (1:10,000, Santa Cruz Biotechnology, Santa Cruz, CA, USA) and anti-rabbit IgG (1:10,000, GE Healthcare, Chicago, IL, USA). Signal detection was performed by using an ECL + Chemiluminescence Detection System (PerkinElmer, Villebon sur-Yvette, France). The antibody actin (1:10000, Cat. Number15 G5 A11/E2, Invitrogen, Carlsbad, CA, USA) was selected as an endogenous control for analysis of HH pathway component expression in HSC3 cells. […]

SCC9 = assay: alamarBlue cytotoxicity assay, SCC9
Method: (§2) To assess the cytotoxicity of the GLI inhibitor GANT61 (Sigma-Aldrich, St. Louis, MO, USA) in tumor and non-tumor cell lines, an alamarBlue assay (Sigma-Aldrich Chemical Co, St. Louis, MO, USA) was performed after 72 h of exposure to the inhibitor, as described by Ahmed et al., 1994 [46]. Cells were distributed on 96-well plates at a density of 7 × 10^4 cells/mL for adhered cells, and 3 × 10^5 cells/mL for cells in suspension. All tested compounds were dissolved in DMSO, added to wells containing 100 µL of cells in complete medium, and then incubated for 72 h. Eight concentrations of GANT61 (0.19 to 50 µg/mL), Doxorubicin (Laboratory IMA S.A.I.C., Buenos Aires, Argentina), and 5-Fluorouracil (5-FU, Sigma-Aldrich, St. Louis, MO, USA), both used as positive controls at concentrations ranging from 0.03 to 5 µg/mL, were added to respective wells. Cells treated with the vehicle (0.5% DMSO) used to dilute the tested compounds were used as negative controls. Before the end of the incubation period (4 h for cell lines and 24 h for PBMCs), 20 µL of alamarBlue stock solution (resazurin, Sigma-Aldrich, St. Louis, MO, USA) was added to each well. Absorbance was measured at 570 nm (reduced) and 595 nm (oxidized) wavelengths, using a Spectramax 190 plate reader (Molecular Devices; Sunnyvale, CA, USA).
(§3) Statistical analyses were performed, using GraphPad Prism v. 6.03 (GraphPad Software, Inc., San Diego, USA). Data were analyzed according to distribution along the normal Gaussian curve. IC50 values were obtained through non-linear regression, using results from three independent experiments carried out in duplicate. Differences between groups resulting from in vitro assays were evaluated by ANOVA (analysis of variance) testing, followed by the Student–Newman–Keuls test. This study considered a level of significance, corresponding to alpha (α) or “p” value, when results were less than or equal to 5%.

CAL27 = assay: alamarBlue cytotoxicity assay, CAL27
Method: as §2, §3

HSC3 cells [2] = assay: Cell cycle and internucleosomal DNA fragmentation by flow cytometry (PI); conditions: for cells in S and G2/M phases: ≥48 h
Method: as §1
Cellular nuclear DNA content was evaluated by flow cytometry, to differentiate among cell cycle phases, using PI (propidium iodide) as a fluorogenic agent. Following incubation with the GLI inhibitor, the supernatant was collected, and wells were washed with saline. Next, cells were trypsinized, then centrifuged (295× g for 5 min) together with the supernatant. Permeabilization was carried out by using a solution (300 µL) containing 0.1% triton X-100, 0.1% sodium citrate and 2 μg/mL of PI and 100 µg/mL RNase in distilled water, placed under dark conditions, at room temperature, for 30 min. Cells were then acquired (10,000 events/sample) and analyzed on a BD LSRFortessa flow cytometer, using BD FACSDiva software version 6.2 (Becton Dickinson Biosciences, San José, CA, USA). Proportions of fragmented internucleosomal DNA and cell cycle phases were determined by using Flowjo software v. 10 (Flowjo LCC, Ashland, OR, USA). Cells in sub-G1 phase were considered to present internucleosomal DNA fragmentation. Cellular debris was omitted from our analysis.

| SMILES | number of viable cells (HSC3 cells [1]; 17 µM, all incubation times) | Gli1 protein levels (Gli1 protein; HSC3, 17 µM) | IC50 (SCC9; Homo sapiens, SCC-9, 72 h of incubation) [µM] | IC50 (CAL27; Homo sapiens, CAL-27, 72 h of incubation) [µM] | cells in S and G2/M phases (HSC3 cells [2]; 5-FU positive control) | viability of HSC3 cells (HSC3 cells [1]; 18 and 36 µM, 24, 48 and 72 h, vs 0.2% DMSO) | Gli1 protein expression (Gli1 protein; HSC3, 18 and 36 µM) | IC50 (SCC9; 72 h of incubation) [µM] | IC50 (CAL27; 72 h of incubation) [µM] | cells in the sub-G0/G1 phase (HSC3 cells [2]; 36 µM, 24 and 48 h, vs DMSO 0.2%) | percentage of HSC3 cells in the sub-G0/G1 phase (HSC3 cells [2]; 36 µM, 12 h) | number of cells in the G0-G1 phase (HSC3 cells [2]; 36 µM, from 12 h forward) | cells in S and G2/M phases (HSC3 cells [2]; 18 and 36 µM) |
| --- | --- | --- | --- | --- | --- | --- | --- | --- | --- | --- | --- | --- | --- |
| O=c1[nH]cc(F)c(=O)[nH]1 [5-FU, 5-fluorouracil] | reduced the number of viable cells | reduce Gli1 protein levels | 143 | 30.8 | significantly lower numbers of cells |  |  |  |  |  |  |  |  |
| CN(C)c1ccccc1CN1CCCN(Cc2ccccc2N(C)C)C1c1ccncc1 [GANT61] |  |  |  |  |  | significantly reduce the viability | reduced levels | 83.5 | > 116 | significantly higher numbers of cells | significant increase | significant decrease | significantly lower numbers of cells |
